Values of other authors, collected in patent publication US11938224B1, “Benzonatate modified release solid tablets and capsules” (Tris Pharma, Inc., priority 2016, dated 2024).

Details: room temperature, oily liquid

solubility in water: water soluble
Structure (SMILES): CCCCNc1ccc(C(=O)OCCOCCOCCOCCOCCOCCOCCOCCOCCOC)cc1 [Benzonatate, 2-[2-[2-[2-[2-[2-[2-[2-(2-methoxyethoxy)ethoxy]ethoxy]ethoxy]ethoxy]ethoxy]ethoxy]ethoxy] ethyl-4-butylaminobenzoate]
